Literature values in patent publication US4407746A, “Cyclohexyl and phenyl substituted enkephalins” (G. D. Searle & Co., priority 1981, dated 1983).

Columns and labels:
rat = settings: injected directly into the brain of the rat; Belluzi et al. 1976
[1] = test system: brain opiate receptor sites; settings: partially purified brain opiate receptor sites; Bradberry et al. 1976

Substance: methionine enkephalin
- analgesic activity (rat): weak, fleeting analgesic activity
- binding to brain opiate receptor sites [1]: binds sterospecifically
